According to patent US11470848B2, “Consortium of (carbamate) thiodicarb-resistant and (pyrethroid) biphenthrin-resistant bacteria and use thereof in liquid fertilizers” (priority 2018, dated 2022):
Where two headings read alike, the source gives them in different places.

Assays:
Format in all cases: cell-based
[1] = tested on: Bacillus megaterium; assay: Stagewise adaptation on growth media with thiodicarb / bifenthrin, mortality; settings: for Resistant to: (FINAL): after the selective process, 40 stages
Protocol: (§1) Bacteria strains, nitrifiers, phosphorus solubilizers and antagonists for pathogens: • a) Azotobacter vinelandii • b) Bacillus megaterium • c) Bacillus subtillis • d) Bacillus thuringiensis • e) Clostridium pasteuranium • f) Rhizobium Preparation for Stage Development • 1. Glass material is sterilized in an autoclave. • 2. The required amount of growth media is prepared, DFA Agar, Malt Agar (Corn Agar) and (PDA) to obtain viable colonies. • 3. Lethal dose (LD) applied to a hectare is established, for thiodicarb as well as bifenthrin. 10 Petri dishes are prepared with 0.1 LD of thiodicarb of bifenthrin. Dishes are incubated at 25° C. for 72 hours with cold light.
Methodology • a. Petri dishes are placed inside the laminar flow chamber along with the diluted samples, to seed microorganisms in the dishes, a one ml sample of the strain is taken with an automated pipette, 10^−1 and 10^−2 solutions are performed and each solution is homogenized. • b. Having the petri dishes with the sterile and cold growth media, it is homogenized with 6 right to left movements, 6 clockwise movements, 6 counterclockwise movements and 6 front to back movements over a flat horizontal surface until the inoculum is completely integrated into the media, stand until it solidifies and each dish is covered with parafilm to avoid contamination during incubation. • c. Dishes with thiodicarb and Bifenthrin are placed inside the incubator at 25° C. for 72 hours with a cold light lamp. • d. Inoculated dishes are incubated for 72 hours and the bacteria growth will be recorded, the product concentration impact is determined over the plate growth (12 hours of incubation). • e. The residual impact of the product is reviewed after 7 days in the malt agar and PDA agar medias. • f. […] The colony diameter is determined using a graduated ruler, data is recorded subtracting the diameter of the seeded dish, from which the effect over the mycelial growth will be determined compared to the control (not poisoned MA, denominated as percentage of inhibition of radial growth (PIRG %). • h. Progress is recorded daily and after 7 days analysis of an acceptable coverage is performed, if not, the procedure is repeated as many times as required. • i. From the 10 Petri dishes for each microorganism, the one with the lowest mortality is the one that will continue with the following study. • j. […]
(§2) Characteristics for this procedure were recorded during all stages through the following indicators: • a. […] Percentage of inhibition measured in Number of CFU/mm • c. […]
(§3) For each species, stages analyzing times required to cover the entire field were performed. Once this time was determined, they were left to rest for 10 days to be later subject to the following protocol: […]

[2] = tested on: Clostridium pasteuranium; assay: as above; settings: for Resistant to: (FINAL): after the selective process, 40 stages
Protocol: as §1
(§4) Methodology • a. Petri dishes are placed inside the laminar flow chamber along with the diluted samples, to seed microorganisms in the dishes, a one ml sample of the strain is taken with an automated pipette, 10^−1 and 10^−2 solutions are performed and each solution is homogenized. • b. Having the petri dishes with the sterile and cold growth media, it is homogenized with 6 right to left movements, 6 clockwise movements, 6 counterclockwise movements and 6 front to back movements over a flat horizontal surface until the inoculum is completely integrated into the media, stand until it solidifies and each dish is covered with parafilm to avoid contamination during incubation. • c. Dishes with thiodicarb and Bifenthrin are placed inside the incubator at 25° C. for 72 hours with a cold light lamp. • d. Inoculated dishes are incubated for 72 hours and the bacteria growth will be recorded, the product concentration impact is determined over the plate growth (12 hours of incubation). • e. The residual impact of the product is reviewed after 7 days in the malt agar and PDA agar medias. • f. If there is no growth over 10%, the process is repeated until a mortality under 90% is obtained. • g. The colony diameter is determined using a graduated ruler, data is recorded subtracting the diameter of the seeded dish, from which the effect over the mycelial growth will be determined compared to the control (not poisoned MA, denominated as percentage of inhibition of radial growth (PIRG %). • h. Progress is recorded daily and after 7 days analysis of an acceptable coverage is performed, if not, the procedure is repeated as many times as required. • i. From the 10 Petri dishes for each microorganism, the one with the lowest mortality is the one that will continue with the following study. • j. The study is performed again using this percentage until coverage increases and so on, the addition of thiodicarb and bifenthrin is alternated with the LD in intervals of 0.1 LD; all these experiments have been designed with the experimental strains and a control. • k. With the data obtained from the bacterial growth, the percentage of inhibition of gradual growth is obtained, the data is transformed for its analysis with the expression 2 arc sin. A two-way classification analysis of variance is applied and later the Turkey test is performed using a 5% probability.
(§5) Characteristics for this procedure were recorded during all stages through the following indicators: • a. Growth speed • b. Percentage of inhibition measured in Number of CFU/mm • c. Percentage of poison resistance
as §3

[3] = tested on: Rhizobium sp; assay: as above; settings: for Resistant to: (FINAL): after the adaptation process, 40 stages
Protocol: as §1
(§6) Methodology • a. Petri dishes are placed inside the laminar flow chamber along with the diluted samples, to seed microorganisms in the dishes, a one ml sample of the strain is taken with an automated pipette, 10^−1 and 10^−2 solutions are performed and each solution is homogenized. • b. […] Inoculated dishes are incubated for 72 hours and the bacteria growth will be recorded, the product concentration impact is determined over the plate growth (12 hours of incubation). • e. […] The colony diameter is determined using a graduated ruler, data is recorded subtracting the diameter of the seeded dish, from which the effect over the mycelial growth will be determined compared to the control (not poisoned MA, denominated as percentage of inhibition of radial growth (PIRG %). • h. Progress is recorded daily and after 7 days analysis of an acceptable coverage is performed, if not, the procedure is repeated as many times as required. • i. From the 10 Petri dishes for each microorganism, the one with the lowest mortality is the one that will continue with the following study. • j. […]
as §2

[4] = tested on: Bacillus thuringiensis; assay: as above; settings: for Resistant to: (FINAL): after the adaptation process, 48 stages
Protocol: as §1, §4, §5, §3

[5] = tested on: Bacillus subtillis; assay: as above; settings: for Resistant to: (FINAL): after the adaptation process, 40 stages
Protocol: as §1, §4, §5, §3

[6] = tested on: Azotobacter vinelandii
Protocol: as §1, §6, §2

[7] = thiodicarb 0.2 LD (0.000035 gr), stages E-3 and E-4
[8] = thiodicarb 0.1 LD (0.0000175 gr), stage E-2
[9] = thiodicarb 0.9 LD (0.00016 gr), stages E-33 and E-34
[10] = bifenthrin 0.9 LD (0.00000042 gr), stages E-37 and E-38

| SMILES | Resistant to: (FINAL) [1] | mortality [1, 7] [%] | Resistant to: (FINAL) [2] | mortality ([2]; thiodicarb 0.1 LD (0.0000175 gr), stage E-1, until incubation day 72) [%] | mortality [2, 8] [%] | Resistant to: (FINAL) [3] | mortality [3, 7] [%] | Resistant to: (FINAL) [4] | mortality [4, 9] [%] | mortality ([4]; thiodicarb 1 LD (0.00018 gr), stages E-35 and E-36) [%] | mortality ([4]; thiodicarb 1.2 LD (0.00022 gr), stages E-43 and E-44) [%] | Resistant to: (FINAL) [5] | mortality ([5]; thiodicarb 0.1 LD (0.0000175 gr), stage E-1, until day 68 of incubation) [%] | mortality [5, 8] [%] | mortality [6, 9] [%] | mortality ([1]; bifenthrin 0.1 LD (0.00000006 gr), stages E-5 and E-6) [%] | mortality [2, 10] [%] | mortality ([5]; bifenthrin 0.3 LD (0.00000018 gr), stages E-13 and E-14) [%] | mortality ([6]; bifenthrin 0.2 LD (0.00000012 gr), stages E-7 and E-8) [%] | mortality [6, 10] [%] |
| --- | --- | --- | --- | --- | --- | --- | --- | --- | --- | --- | --- | --- | --- | --- | --- | --- | --- | --- | --- | --- |
| CS/C(C)=N\OC(=O)N(C)SN(C)C(=O)O/N=C(\C)SC [thiodicarb] | 1 LD of thiodicarb | 65 | 1 DL of thiodicarb | 87 | 84 | 1 DL of thiodicarb | 60 | 1.2 LD of thiodicarb | 30 | 25 | 14 | 1 LD of thiodicarb | 82 | 80 | 10 | – | – | – | – | – |
| Cc1c(COC(=O)[C@@H]2[C@H](/C=C(\Cl)C(F)(F)F)C2(C)C)cccc1-c1ccccc1 (racemic) [bifenthrin, 2-methyl biphenyl-3-ilmetil(2)-(1RS,3RS)-3-(2-chlorine 3,3,3-trifluoropropene)-2,2-dimethyl-cyclo-propane-carboxylate] | 1 LD of thiodicarb | – | 1 DL of thiodicarb | – | – | 1 DL of thiodicarb | – | 1.2 LD of thiodicarb | – | – | – | 1 LD of thiodicarb | – | – | – | 63 | 10 | 65 | 60 | 10 |
